In PubChem BioAssay (NCI):
“And” between values parts separate entries of the source, which are not always exact repeats. Equal values may be shown once.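 Tested at 5 concentrations; 48 h exposure; 96-well plates; endpoints linearly interpolated, else capped at highest concentration. At the GI50, growth is halved. TGI denotes the concentration required for complete inhibition of growth.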

Key:
Experiment in all cases: NCI tumour cell line growth inhibition, 48 h
ACHN renal = test system: ACHN renal
EKVX NSCLC = test system: EKVX NSCLC
HCT-116 colon = test system: HCT-116 colon
IGROV1 ovarian = test system: IGROV1 ovarian
K-562 leukemia = test system: K-562 leukemia
MALME-3M melanoma = test system: MALME-3M melanoma
MCF7 breast = test system: MCF7 breast
OVCAR-5 ovarian = test system: OVCAR-5 ovarian
OVCAR-8 ovarian = test system: OVCAR-8 ovarian
PC-3 prostate = test system: PC-3 prostate

## CCCSC1=NC2C(N(CC)C(=O)N2CC)N1/N=C/C=C/c1ccccc1[N+](=O)[O-] (stereo not drawn)
ACHN renal
  GI50: 3.98 µM
  TGI: > 100 µM
EKVX NSCLC
  GI50: 3.89 µM
  TGI: > 100 µM
HCT-116 colon
  GI50: 3.2 µM
  TGI: > 100 µM
IGROV1 ovarian
  GI50: 4.06 µM
  TGI: > 100 µM
K-562 leukemia
  GI50: 2.31 µM
  TGI: > 100 µM
MALME-3M melanoma
  GI50: 4.74 µM
  TGI: > 100 µM
MCF7 breast
  GI50: 2.81 µM
  TGI: > 100 µM
OVCAR-5 ovarian
  GI50: 5.65 µM
  TGI: > 100 µM
OVCAR-8 ovarian
  GI50: 3.76 µM
  TGI: > 100 µM
PC-3 prostate
  GI50: 3.33 µM
  TGI: > 100 µM

## CS(=O)(=O)CCNCc1ccc(-c2ccc3ncnc(Nc4ccc(OCc5ccccc5)c(Cl)c4)c3c2)o1
ACHN renal
  GI50: 0.187 µM
  TGI: > 25 µM
EKVX NSCLC
  GI50: 0.132 µM
  TGI: > 18.7 µM
HCT-116 colon
  GI50: 4.53 µM
  TGI: 9.54 µM
IGROV1 ovarian
  GI50: 2.8 µM
  TGI: > 21.4 µM
K-562 leukemia
  GI50: 5.45 µM
  TGI: 14.4 µM
MALME-3M melanoma
  GI50: 5.18 µM
  TGI: 10.4 µM
MCF7 breast
  GI50: 5.06 µM
  TGI: > 13.8 µM
OVCAR-5 ovarian
  GI50: 3.61 µM
  TGI: 18.8 µM
OVCAR-8 ovarian
  GI50: 8.1 µM
  TGI: > 25 µM
PC-3 prostate
  GI50: 7.41 µM
  TGI: 24.2 µM

## N#Cc1ccc(C(c2ccc(C#N)cc2)n2cncn2)cc1
ACHN renal
  GI50: > 5000 µM
  TGI: > 5000 µM
EKVX NSCLC
  GI50: > 5000 µM
  TGI: > 5000 µM
IGROV1 ovarian
  GI50: 47.5 µM
K-562 leukemia
  GI50: 3800 µM
  TGI: > 5000 µM
MALME-3M melanoma
  GI50: > 5000 µM
  TGI: > 5000 µM
MCF7 breast
  GI50: > 5000 µM
  TGI: > 5000 µM
OVCAR-5 ovarian
  GI50: > 5000 µM
  TGI: > 5000 µM
OVCAR-8 ovarian
  TGI: > 5000 µM
PC-3 prostate
  GI50: > 5000 µM
  TGI: > 5000 µM

## CC(=O)[O][Hg][c]1ccccc1
ACHN renal
  GI50: 1.23 µM
  TGI: 2.61 µM
EKVX NSCLC
  GI50: 1.46 µM
  TGI: 3.98 µM
HCT-116 colon
  GI50: 0.264 µM
  TGI: 0.667 µM
IGROV1 ovarian
  GI50: 0.295 µM
  TGI: 0.934 µM
K-562 leukemia
  GI50: 0.294 µM
  TGI: 1.31 µM
MALME-3M melanoma
  GI50: 0.506 µM
  TGI: 1.62 µM
MCF7 breast
  GI50: 0.197 µM
  TGI: 0.684 µM
OVCAR-5 ovarian
  GI50: 2.19 µM
  TGI: 3.84 µM
OVCAR-8 ovarian
  GI50: 0.921 µM
  TGI: 3.96 µM
PC-3 prostate
  GI50: 1.41 µM
  TGI: 3.21 µM

## Nc1c(C(=O)Nc2ccccc2F)sc2nc3c(cc12)C(=O)CCC3
ACHN renal
  GI50: > 21.5 µM
  TGI: > 100 µM
EKVX NSCLC
  TGI: > 100 µM
HCT-116 colon
  GI50: 0.646 µM
  TGI: > 100 µM
IGROV1 ovarian
  GI50: 2.92 µM
  TGI: > 100 µM
K-562 leukemia
  GI50: 0.553 µM
  TGI: > 100 µM
MALME-3M melanoma
  GI50: 1.44 µM
  TGI: > 100 µM
MCF7 breast
  GI50: 0.499 µM
  TGI: > 100 µM
OVCAR-5 ovarian
  GI50: 4.05 µM
  TGI: > 100 µM
OVCAR-8 ovarian
  GI50: 13.8 µM
  TGI: > 100 µM
PC-3 prostate
  GI50: 0.959 µM
  TGI: > 100 µM

## Cc1c(NC(=O)OC[C@@H]2COCCN2)cn2ncnc(Nc3ccc4c(cnn4Cc4cccc(F)c4)c3)c12
ACHN renal
  GI50: 0.576 µM and 0.44 µM
  TGI: > 10 µM and 15.3 µM
EKVX NSCLC
  GI50: 0.716 µM and 0.257 µM
  TGI: > 10 µM and 14.2 µM
HCT-116 colon
  GI50: 7.82 µM and 5.22 µM
  TGI: > 10 µM and 18.7 µM
IGROV1 ovarian
  GI50: 0.855 µM and 2.16 µM
  TGI: > 10 µM and 19.9 µM
K-562 leukemia
  GI50: 3.91 µM and 4.53 µM
  TGI: > 10 µM and 17.1 µM
MALME-3M melanoma
  GI50: > 10 µM and 10.5 µM
  TGI: > 10 µM and 31.2 µM
MCF7 breast
  GI50: > 10 µM and 12.1 µM
  TGI: > 10 µM and 33.6 µM
OVCAR-5 ovarian
  GI50: > 10 µM and 8.82 µM
  TGI: > 10 µM and 21.4 µM
OVCAR-8 ovarian
  GI50: > 10 µM and 8.88 µM
  TGI: > 10 µM and 28.7 µM
PC-3 prostate
  GI50: > 10 µM and 10.2 µM
  TGI: > 10 µM and 31.8 µM

## O=C(CCCCCCSc1nc(-c2ccc(Cl)cc2)cc(-c2ccc(Cl)cc2)n1)NO
ACHN renal
  GI50: 1.21 µM
  TGI: 3.59 µM
EKVX NSCLC
  GI50: 2.6 µM
  TGI: 39.6 µM
HCT-116 colon
  GI50: 1.45 µM
  TGI: 6.05 µM
IGROV1 ovarian
  GI50: 1.7 µM
  TGI: 12.8 µM
K-562 leukemia
  GI50: 1.65 µM
  TGI: > 50 µM
MALME-3M melanoma
  GI50: 1.16 µM
  TGI: 4.45 µM
MCF7 breast
  GI50: 1.44 µM
  TGI: > 50 µM
OVCAR-5 ovarian
  GI50: 1.55 µM
  TGI: 5.63 µM
OVCAR-8 ovarian
  GI50: 1.43 µM
  TGI: 8.1 µM
PC-3 prostate
  GI50: 1.54 µM
  TGI: 16.3 µM

## Cc1nc2n(c(=O)c1CCN1CCC(c3noc4cc(F)ccc34)CC1)CCCC2
ACHN renal
  GI50: > 50 µM
  TGI: > 50 µM
EKVX NSCLC
  GI50: > 50 µM
  TGI: > 50 µM
HCT-116 colon
  GI50: > 50 µM
  TGI: > 50 µM
IGROV1 ovarian
  GI50: > 50 µM
  TGI: > 50 µM
K-562 leukemia
  GI50: > 50 µM
  TGI: > 50 µM
MALME-3M melanoma
  GI50: > 50 µM
  TGI: > 50 µM
MCF7 breast
  GI50: > 50 µM
  TGI: > 50 µM
OVCAR-5 ovarian
  GI50: > 50 µM
  TGI: > 50 µM
OVCAR-8 ovarian
  GI50: > 50 µM
  TGI: > 50 µM
PC-3 prostate
  GI50: > 50 µM
  TGI: > 50 µM

## CN(C[C@@H]1COCCO1)S(=O)(=O)Nc1ccc2ccc3ncc(-c4cnn(C)c4)cc3c(=O)c2c1
ACHN renal
  GI50: 2.82 µM
  TGI: > 100 µM
EKVX NSCLC
  GI50: 19.1 µM
  TGI: > 100 µM
HCT-116 colon
  GI50: 3.87 µM
  TGI: > 100 µM
IGROV1 ovarian
  GI50: 2.5 µM
  TGI: > 100 µM
K-562 leukemia
  GI50: 6.57 µM
  TGI: > 100 µM
MALME-3M melanoma
  GI50: 5.43 µM
  TGI: > 100 µM
MCF7 breast
  GI50: 12.8 µM
  TGI: > 100 µM
OVCAR-5 ovarian
  GI50: > 81.2 µM
  TGI: > 100 µM
OVCAR-8 ovarian
  GI50: 5.04 µM
  TGI: > 100 µM
PC-3 prostate
  GI50: 5.67 µM
  TGI: > 100 µM

## C[C@H]1C(Oc2ccc(O)cc2)OC2OC3(C)CCC4[C@H](C)CCC1C24OO3 (stereo partly drawn)
ACHN renal
  GI50: 3.97 µM
  TGI: 19 µM
EKVX NSCLC
  GI50: 6.42 µM
  TGI: 23.1 µM
HCT-116 colon
  GI50: 8.56 µM
  TGI: 25 µM
IGROV1 ovarian
  GI50: 16.7 µM
  TGI: 32.5 µM
K-562 leukemia
  GI50: > 42 µM
  TGI: > 100 µM
MALME-3M melanoma
  GI50: 14.1 µM
  TGI: 28.9 µM
MCF7 breast
  GI50: 12.6 µM
  TGI: 32.5 µM
OVCAR-5 ovarian
  GI50: 10.4 µM
  TGI: 25.9 µM
OVCAR-8 ovarian
  GI50: 2.12 µM
  TGI: 25.4 µM
PC-3 prostate
  GI50: 0.251 µM
  TGI: 14.8 µM

## COc1ccc(C(=O)COc2cccc(/C=C3\CSc4ccc(C)cc4C3=O)c2)cc1
ACHN renal
  GI50: 25.7 µM
  TGI: > 100 µM
EKVX NSCLC
  GI50: 25.1 µM
  TGI: > 100 µM
HCT-116 colon
  GI50: 1.91 µM
  TGI: 5.71 µM
IGROV1 ovarian
  GI50: 12.2 µM
  TGI: 43.8 µM
K-562 leukemia
  GI50: 2.17 µM
  TGI: 6.9 µM
MALME-3M melanoma
  GI50: 41 µM
  TGI: > 100 µM
MCF7 breast
  GI50: 2.64 µM
  TGI: 31.3 µM
OVCAR-5 ovarian
  GI50: 51.9 µM
  TGI: > 100 µM
OVCAR-8 ovarian
  GI50: 5.89 µM
  TGI: > 100 µM
PC-3 prostate
  GI50: 5.86 µM
  TGI: > 100 µM

## O=C1/C(=C/c2ccccc2)CN(C(=O)OCc2ccccc2)C/C1=C\c1ccccc1
ACHN renal
  TGI: 25.7 µM
EKVX NSCLC
  TGI: > 31.6 µM
HCT-116 colon
  GI50: 0.484 µM
  TGI: 1.63 µM and 2.63 µM
IGROV1 ovarian
  TGI: 23.8 µM
K-562 leukemia
  GI50: 1.63 µM
  TGI: 15.4 µM
MALME-3M melanoma
  TGI: > 46.4 µM
MCF7 breast
  TGI: 37.2 µM
OVCAR-5 ovarian
  TGI: 30.8 µM
OVCAR-8 ovarian
  GI50: 3.05 µM
  TGI: 9.39 µM and 20.3 µM
PC-3 prostate
  TGI: 57.7 µM
